# Reference: patent publication US5620676A, “Biologically active ATP analogs” (priority 1995, dated 1997)
# “Also recorded” adds a separate entry of the source. Like-named read-outs stand apart in the source and are kept apart here.
# Experiments:
# [1] = molecular target: T1, P2Y receptor (taenia coli) (Cavia porcellus, UniProt P59902); conditions: cited from earlier work
# T1 construct: Relaxant responses mediated via P2Y receptors were examined in guinea pig taenia coli; from tissue; host or cells: guinea pig taenia coli (carbachol-contracted)
# T1 sequence (P59902 whole entry): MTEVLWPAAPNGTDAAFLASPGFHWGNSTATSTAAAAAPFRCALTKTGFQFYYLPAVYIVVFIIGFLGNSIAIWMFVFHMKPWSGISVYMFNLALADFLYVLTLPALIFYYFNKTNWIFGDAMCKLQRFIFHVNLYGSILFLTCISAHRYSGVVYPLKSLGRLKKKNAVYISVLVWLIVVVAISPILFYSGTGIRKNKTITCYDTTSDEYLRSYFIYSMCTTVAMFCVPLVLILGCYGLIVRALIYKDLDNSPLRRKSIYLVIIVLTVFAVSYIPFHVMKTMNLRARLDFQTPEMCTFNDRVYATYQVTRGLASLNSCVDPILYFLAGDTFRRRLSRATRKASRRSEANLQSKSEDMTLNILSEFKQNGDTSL
# [2] = molecular target: P2Y receptor (mesenteric artery); assay: Relaxation of rabbit mesenteric artery; conditions: for relaxation pD2, mes. artery: log molar units
# [3] = molecular target: T2, adenylyl cyclase linked P2Y receptor (C6 rat glioma cells) (Rattus norvegicus, UniProt Q9EPX4); assay: Inhibition of adenylyl cyclase in C6 rat glioma cells; format: cell-based; conditions: versus phospholipase C linked receptor
# T2 construct: endogenous in cells; host or cells: C6 rat glioma cells
# T2 sequence (Q9EPX4 whole entry): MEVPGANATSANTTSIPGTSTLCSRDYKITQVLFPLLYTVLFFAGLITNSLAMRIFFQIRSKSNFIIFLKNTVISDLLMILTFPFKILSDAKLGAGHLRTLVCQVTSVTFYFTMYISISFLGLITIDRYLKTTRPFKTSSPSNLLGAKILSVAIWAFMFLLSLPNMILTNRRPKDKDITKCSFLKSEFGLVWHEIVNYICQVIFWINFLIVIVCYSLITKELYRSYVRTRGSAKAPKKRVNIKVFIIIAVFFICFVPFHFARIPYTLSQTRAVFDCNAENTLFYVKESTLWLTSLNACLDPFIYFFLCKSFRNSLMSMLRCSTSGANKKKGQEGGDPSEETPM
# Protocol: This example illustrates the inhibition of adenylyl cyclase activity in C6 rat glioma cells, as a function of the presence of certain ATP analogs in the medium in which the C6 cells were cultured.
# Cells were labelled by incubation for 2 hours in the presence of 1 to 2 mCi of tritiated adenine/ml in the medium. Cells were washed twice with HEPES (20 mM, pH 7.5)-buffered Eagle's medium and then preincubated for 10 minutes at 37° C. with fresh medium containing 200 μM 3-isobutyl-1-methylxanthine. Agonist incubations were initiated by the simultaneous addition of 10 μM isoproterenol and various concentrations of nucleotides. The reactions were stopped after 10 minutes of aspiration of the nucleotide-containing medium and addition of 1 ml of ice-cold 5% trichloroacetic acid.
# [4] = system: P2Y receptor (aorta endothelium); assay: Relaxation of noradrenalin-contracted rabbit aorta; conditions: for relaxation pD2, aorta: rabbit aorta, log molar units; for activity/potency/selectivity in words, aorta: rabbit aorta endothelial P2Y receptor
# [5] = molecular target: T3, P2Y receptor (turkey erythrocyte membranes) (Meleagris gallopavo, UniProt P49652); assay: Stimulation of phospholipase C (inositol phosphate formation) in turkey erythrocyte membranes; format: biochemical; conditions: for EC50 / activity/potency in words, turkey erythrocyte: turkey erythrocyte membranes; for fold less potent than ATP, turkey erythrocyte: relative to ATP
# T3 construct: from tissue; host or cells: washed turkey erythrocytes, ghosts prepared by hypotonic lysis
# T3 sequence (P49652 whole entry): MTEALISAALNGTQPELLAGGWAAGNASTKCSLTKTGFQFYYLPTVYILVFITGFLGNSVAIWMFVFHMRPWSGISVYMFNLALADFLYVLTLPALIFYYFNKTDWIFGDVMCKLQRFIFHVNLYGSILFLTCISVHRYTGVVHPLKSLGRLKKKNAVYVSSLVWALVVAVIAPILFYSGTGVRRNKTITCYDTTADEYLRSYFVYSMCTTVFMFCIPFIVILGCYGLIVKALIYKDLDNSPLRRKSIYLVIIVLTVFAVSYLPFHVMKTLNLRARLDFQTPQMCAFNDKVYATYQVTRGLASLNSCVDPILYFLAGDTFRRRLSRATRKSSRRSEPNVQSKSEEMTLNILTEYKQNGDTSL
# How it was run: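 Erythrocytes were labelled 18-24 h at 37 °C with [3H]myoinositol, and ghosts were made by hypotonic lysis. Ghosts (≈175 μg protein) were incubated 5 min at 30 °C in Hepes buffer pH 7.0 with 1 μM GTPγS and nucleotide analogs. Total [3H]inositol phosphates were purified by anion exchange; K0.5 averaged from 3-8 dose-response curves.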
# [6] = molecular target: T4, P2X receptor (urinary bladder) (Cavia porcellus, UniProt A0A286XVA9); assay: Contraction of guinea pig isolated urinary bladder detrussor muscle; conditions: guinea pig urinary bladder
# T4 construct: guinea pig isolated urinary bladder detrussor muscle; from tissue; host or cells: guinea pig isolated urinary bladder detrusor muscle
# Protocol: (§1) In FIG. 14, the x-axis is also marked in units of the negative log of the molar concentration of applied putative P2Y receptor agonists and the y-axis is marked in units of the percentage relaxation of the 1 μM noradrenalin-induced contraction of rabbit aorta endothelium. In FIGS. 15-16, the x-axis is marked in units of the negative log of the molar concentration of applied putative p^2X receptor agonists and the y-axis is marked in units of the percentage contraction relative to a standard dose of KCl (i.e., 60 mM), as assessed in guinea pig isolated urinary bladder detrussor muscle (FIG. 15) and guinea pig isolated vas deferens (FIG. 16).
# P2Y receptors = assay: Overall activity in P2Y receptor systems
# Protocol: Phospholipase C activity: Stimulation of inositol phosphate formation by compounds of the present invention was measured in turkey erythrocyte membranes as described by Harden et al., supra and Boyer et al., supra. The K0.5 values were averaged from 3-8 independently determined dose-response curves for each compound. Briefly, one ml of washed turkey erythrocytes was incubated in inositol-free medium (DMEM; Gibco) with 0.5-1 mCi of 2-[^3 H]myoinositol (20 Ci/mmol; American Radiolabeled Chemicals Inc., St. Louis, Mo.)for 18-24 h in a humidified atmosphere of 95% air 5% CO2 at 37° C. Erythrocyte ghosts were prepared by rapid lysis in hypotonic buffer (5 mM sodium phosphate, pH 7.4, 5 mM MgCl2, 1 mM EGTA) as described by Boyer et al., supra. Phospholipase C activity was measured in 25 μl of [^3 H]inositol-labeled ghosts (≈175 μg of protein, 200-500,000 cpm/assay) in a medium containing 424 μM CaC12, 0.91 mM MgSO4, 2 mM EGTA, 115 mM KCl, 5 mM KH2 PO4, and 10 mM Hepes, pH 7.0. Assay (100 μl or 200 μl final volume) contained 1 μM GTPγS and the indicated concentrations of nucleotide analogs. Ghosts were incubated at 30° C. for 5 min, and total [^3 H]inositol phosphates were quantitated after purification by anion exchange chromatography according to Harden et al. (supra) and Boyer et al. (supra).
# Muscular relaxation/contraction: Relaxant responses mediated via P2Y receptors were examined in guinea pig taenia coli, rabbit aorta, and rabbit mesenteric artery, as described by Hoyle et al. (Br. J. Pharmacol., 107, 367-374 (1992a)), Burnstock et al., (Br. J. Pharmacol., 90, 383-391 (1987a)), and Rubino et al., (Eur. J. Pharmacol., 212, 237-240 (1992)). Contractile responses mediated via P2X receptors were examined in the guinea pig urinary bladder and vas deferens, and rabbit saphenous artery, also using standard methods (see Hoyle et al., supra., 1992; Hoyle et al., Br. J. Pharmacol., 99, 617-621 (1990); and Burnstock et al., Br. J. Pharmacol., 90, 111-120 (1987b)).
# P2X and P2Y receptors = assay: Overall activity in the seven P2X and P2Y preparations
# [7] = molecular target: T5, P2X receptor (saphenous artery) (Oryctolagus cuniculus, UniProt G1U3D6); assay: Contraction of rabbit saphenous artery; conditions: rabbit saphenous artery
# T5 construct: and rabbit saphenous artery; from tissue; host or cells: rabbit saphenous artery
# T5 sequence (G1U3D6 1-399): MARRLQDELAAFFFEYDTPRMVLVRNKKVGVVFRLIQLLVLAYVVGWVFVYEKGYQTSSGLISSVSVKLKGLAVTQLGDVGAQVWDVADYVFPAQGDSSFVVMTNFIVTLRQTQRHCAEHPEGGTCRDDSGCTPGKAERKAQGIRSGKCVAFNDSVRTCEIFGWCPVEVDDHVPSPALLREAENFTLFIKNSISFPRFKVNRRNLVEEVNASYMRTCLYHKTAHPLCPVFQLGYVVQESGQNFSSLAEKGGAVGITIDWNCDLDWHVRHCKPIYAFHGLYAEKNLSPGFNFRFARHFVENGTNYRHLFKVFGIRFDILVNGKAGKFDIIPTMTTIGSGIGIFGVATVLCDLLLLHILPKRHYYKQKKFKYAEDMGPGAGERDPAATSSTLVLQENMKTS
# How it was run: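 Contraction of isolated rabbit saphenous artery, standard organ-bath methods; responses at 10 μM expressed as percentage of contraction produced by 1 μM α,MeATP. Highest analogue concentrations tested were 3-30 […].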
# [8] = molecular target: T6, P2X receptor (vas deferens) (Cavia porcellus, UniProt A0A286XVA9); assay: Contraction of guinea pig isolated vas deferens
# T6 sequence (A0A286XVA9 1-399): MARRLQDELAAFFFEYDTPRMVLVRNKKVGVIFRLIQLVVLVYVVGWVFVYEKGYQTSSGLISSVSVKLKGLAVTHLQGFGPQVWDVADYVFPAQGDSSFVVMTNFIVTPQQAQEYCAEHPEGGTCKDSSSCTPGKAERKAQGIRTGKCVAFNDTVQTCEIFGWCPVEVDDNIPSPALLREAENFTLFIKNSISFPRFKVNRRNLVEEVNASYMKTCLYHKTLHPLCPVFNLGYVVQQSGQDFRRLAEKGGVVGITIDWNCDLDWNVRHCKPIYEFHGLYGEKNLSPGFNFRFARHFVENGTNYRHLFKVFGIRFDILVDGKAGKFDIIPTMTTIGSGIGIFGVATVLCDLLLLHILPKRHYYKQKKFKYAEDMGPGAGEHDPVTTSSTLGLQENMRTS
# Protocol: as §1
# P2X receptors = assay: Overall activity in P2X receptor systems
# [9] = molecular target: T1, P2Y receptor (taenia coli); assay: Relaxation of carbachol-contracted guinea pig taenia coli; conditions: for activity/potency in words, taenia coli: guinea pig taenia coli
# How it was run: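 Guinea pig taenia coli precontracted with 50 nM carbachol; relaxation to applied P2Y agonists expressed as percentage relaxation against negative log molar agonist concentration.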
# [10] = mean ± S.E.M. for at least 2 determinations, read-out: phosphatidyl inositol metabolism (K0.5, nM) erythrocyte
# [11] = listed as 3'-Benzylamino-3'-deoxy-ATP
# [12] = listed as 3'-benzylamino-3'-deoxy-ATP
# [13] = listed as 3'-benzylamino-3'-deoxyATP
# [14] = listed as adenosine-N1-oxide triphosphate
smiles,measurement,setting,value
"Nc1nc(Cl)nc2c1ncn2[C@@H]1O[C@H](COP(=O)(O)OP(=O)(O)OP(=O)(O)O)[C@@H](O)[C@H]1O [2-Cl-ATP, 2-chloro-ATP, reference compound]","relaxation pD2, taenia coli","[1]; guinea pig taenia coli, log molar units, footnote e: literature data",7.2
same,"relaxation pD2, mes. artery",[2],6.2
same,"selectivity for the adenylyl cyclase linked receptor, in words",[3],not observed
same,"relaxation pD2, aorta",[4],5.8
same,EC50,[5]; [10],72 ± 19 nM
same,EC50,[5]; read-out: K0.5,72 nM
"Nc1ncnc2c1ncn2[C@@H]1O[C@H](COP(=O)(O)OP(=O)(O)OP(=O)(O)O)[C@@H](NCc2ccccc2)[C@H]1O [3'-Benzylamino-3'-deoxyATP, 3'-N-Benzylamino-3'-deoxyadenosine 5'-triphosphate]","activity/potency in words, bladder",[6],highly potent at urinary bladder P2X receptors
same,"activity/potency in words, bladder",[6]; [11],substantially more potent than ATP
same,"activity/potency in words, bladder",[6]; [12],potent agonists in the vas deferens and urinary bladder
same,"activity/potency in words, bladder",[6]; [13],high potency
same,"overall activity in words, P2Y systems",P2Y receptors,either inactive or only a weak agonist in P2Y -systems
same,"overall activity in words, P2Y systems",P2Y receptors; listed as 3'-benzylamino-3'deoxyATP,inactive in the P2Y receptor systems
same,"overall activity in words, all preparations",P2X and P2Y receptors,active only in the vas deferens and urinary bladder
same,"activity/potency in words, saphenous artery",[7],inactive
same,"activity/potency in words, saphenous artery",[7]; [12],at best weak agonists in the saphenous artery
same,"activity/potency in words, saphenous artery",[7]; [13],not rabbit saphenous artery P2X receptors
same,"activity/potency in words, vas deferens",[8],the most potent agonist at vas deferens P2X receptors
same,"activity/potency in words, vas deferens",[8]; [11],substantially more potent than ATP
same,"activity/potency in words, vas deferens",[8]; [12],potent agonists in the vas deferens and urinary bladder
same,"activity/potency in words, vas deferens",[8]; [13],high potency
same,"overall activity in words, P2X systems",P2X receptors,specificity for P2X receptors
same,EC50,[5]; [10],> 100000 nM
"Nc1ncnc2c1ncn2[C@@H]1O[C@H](COP(O)(=S)OP(=O)(O)OP(=O)(O)O)[C@@H](O)[C@H]1O (stereo partly drawn) [ATP-α-S (S-isomer), reference compound]","fold more potent than ATP, taenia coli","[1]; relative to ATP, see Burnstock et al. 1984",approximately 10 -fold
same,"relaxation pD2, mes. artery",[2],6.6
same,EC50,"[5]; phosphatidyl inositol metabolism (K0.5, nM) erythrocyte, mean ± S.E.M. for at least 2 determinations",8930 ± 4440 nM
same,"fold less potent than ATP, turkey erythrocyte",[5],2 -fold
"Nc1c2ncn([C@@H]3O[C@H](COP(=O)(O)OP(=O)(O)OP(=O)(O)O)[C@@H](O)[C@H]3O)c2nc[n+]1[O-] [Adenosine N1-oxide 5'-triphosphate, adenosine N1-oxide 5'-triphosphate, reference compound]","overall activity in words, P2Y systems",P2Y receptors,specific for P2Y receptors
same,EC50,[9],12.6 µM
same,"activity/potency in words, mesenteric artery",[2],no activity at the mesenteric artery P2Y receptor
same,"overall activity in words, P2X systems",P2X receptors,inactive in the P2X receptor systems
same,"activity/potency/selectivity in words, aorta",[4],selective for the endothelial receptors of the rabbit aorta versus the mesenteric artery and taenia coli
same,"activity/potency/selectivity in words, aorta",[4]; [14],much more potent than ATP
same,"relaxation pD2, aorta",[4],6.7
same,"activity/potency in words, turkey erythrocyte",[5],somewhat active in turkey erythrocytes
same,"activity/potency in words, turkey erythrocyte",[5]; [14],less potent than ATP at the turkey erythrocyte P2Y receptor
same,EC50,[5]; [10],16900 nM
"CNc1ncnc2c1ncn2[C@@H]1O[C@H](COP(=O)(O)OP(=O)(O)OP(=O)(O)O)[C@@H](O)[C@H]1O [N^6 -Me-ATP, N^6 -Methyl-adenosine 5'-triphosphate]","overall activity in words, P2Y systems",P2Y receptors,inactive in vascular smooth muscle
same,EC50,[9],1.58 µM
same,"activity/potency in words, taenia coli",[9]; listed as N^6 -methyl ATP,equipotent with ATP in the taenia coli
same,"activity/potency in words, taenia coli",[9]; listed as N^6 -methylATP,selectivity; also recorded: at an equal level as if activated by ATP itself
same,"activity/potency in words, mesenteric artery",[2],not activated at concentrations of the N^6 -methyl derivative as high as 10^-5 M
same,"overall activity in words, P2X systems",P2X receptors; listed as N^6 -methyl ATP,inactive in P2X preparations
same,"overall activity in words, P2X systems",P2X receptors; listed as N^6 -methyl-ATP,inactive in the P2X receptor systems
same,"selectivity for the adenylyl cyclase linked receptor, in words",[3],slightly selective of the phospholipase C-linked receptor
same,"activity/potency/selectivity in words, aorta",[4],significantly less activated
same,"fold less potent than ATP, turkey erythrocyte",[5],7 -fold
same,EC50,[5]; [10],19000 nM
